Reference: article PMC10804683, “Identification of the pyridoxal 5′‐phosphate allosteric site in human pyridox(am)ine 5′‐phosphate oxidase” (Protein Science : A Publication of the Protein Society, 2024)
Changes are numbered by the printed parent chain.

Key:
[1] = molecular target: T1, human PNPO F48A/E50L/R258L variant (holo-enzyme) (Homo sapiens, UniProt Q9NVS9, E50L/F48A/R258L); test: PLP binding by FMN fluorescence changes, holo triple variant; details: 100 nM enzyme, read-out: PLP binding KD^FLUO
T1 construct: a main form corresponding to the entire protein; made in house; host or cells: E. coli BL21(DE3)
T1 sequence (Q9NVS9 1-261 F48A/E50L/R258L): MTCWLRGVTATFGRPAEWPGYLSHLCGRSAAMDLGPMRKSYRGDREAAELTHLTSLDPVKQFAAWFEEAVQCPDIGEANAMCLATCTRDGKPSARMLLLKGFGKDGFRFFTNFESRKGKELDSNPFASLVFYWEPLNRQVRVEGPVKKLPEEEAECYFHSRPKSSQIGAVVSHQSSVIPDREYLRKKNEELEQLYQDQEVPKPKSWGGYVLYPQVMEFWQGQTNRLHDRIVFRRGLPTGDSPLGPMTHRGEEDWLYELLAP
Excerpt: (§1) PLP binding to PNPO can be detected and quantitatively measured using differential scanning fluorimetry (DSF) and also by measuring FMN fluorescence changes. We had previously attributed DSF changes to PLP binding at the active site, while FMN fluorescence changes were attributed to PLP binding at the allosteric site (Barile et al., [2019], [2020]). Previous experiments carried out with the PNPO R161C variant, affecting a residue that is essential for substrate binding and catalysis (and therefore also for PLP binding at the active site), confirms that DSF measurements only report PLP binding at the active site (Barile et al., [2021]; Table 1). […] We expected to observe no FMN fluorescence changes upon titration of the variants with PLP. However, this was not the case, and the dissociation constant values obtained by observing the FMN fluorescence emission were only up to threefold larger in the variants with respect to wild type PNPO (Figure 3). […] To check the second possibility, we measured intrinsic fluorescence changes of wild type and variant apo‐forms (i.e., without FMN) upon PLP titration. […]
(§2) Analyses of PLP binding, based on FMN fluorescence increase observed upon binding of PLP to PNPO, were performed as described in Barile et al. ([2020]). […] Emission spectra were recorded from […], with excitation and emission slits set at 3 and 5 nm, respectively. […]

[2] = molecular target: T2, human PNPO F48A variant (holo-enzyme) (Homo sapiens, UniProt Q9NVS9, F48A); test: PLP binding by FMN fluorescence changes, holo F48A; details: 100 nM enzyme, read-out: PLP binding KD^FLUO
T2 construct: a main form corresponding to the entire protein; made in house; host or cells: E. coli BL21(DE3)
T2 sequence (Q9NVS9 1-261 F48A): T1 sequence (Q9NVS9 1-261 F48A/E50L/R258L) with L50E, L258R
Excerpt: as §1, §2

[3] = molecular target: T3, human PNPO 1-31del variant (Homo sapiens, UniProt Q9NVS9); test: PLP binding by DSF, 1-31del; details: 50 mM Na-HEPES pH 7.6, 2 μM enzyme
T3 construct: a main form corresponding to the entire protein; made in house; host or cells: E. coli BL21(DE3)
T3 sequence (Q9NVS9 32-261): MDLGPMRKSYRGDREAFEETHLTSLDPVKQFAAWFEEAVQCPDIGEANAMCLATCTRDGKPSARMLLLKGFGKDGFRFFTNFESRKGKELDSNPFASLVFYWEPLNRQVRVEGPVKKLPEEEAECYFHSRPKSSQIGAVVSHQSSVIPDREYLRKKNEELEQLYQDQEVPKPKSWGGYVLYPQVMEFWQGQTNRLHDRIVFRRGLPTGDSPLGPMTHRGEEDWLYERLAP
Description: FIGURE 2 DSF measurements with F48A (a), F48A/E50L/R258L (b), F48A/E50L/H248N/R258L (c), and 1‐31del PNPO variants in the presence of different PLP concentrations. Upper panels: Fluorescence change is expressed as fractional variation as a function of temperature. The experiment was carried out using 2 μM enzyme and different PLP concentrations (0, 0.78, 1.56, 3.13, 6.25, 12.5, 25, and 50 μM). Thermal denaturation data are fitted to the Boltzmann equation to obtain melting temperatures. Each curve is the average of three independent experiments with standard error bars. Lower panels: Saturation curves obtained by plotting the melting temperatures as a function of the PLP concentration. […] (μM)' of each lower plot.

- Kd [1]: 1380 ± 80 nM
- Kd [2]: 1460 ± 90 nM
- Kd [3]: 3000 ± 300 nM
Structure (SMILES): Cc1ncc(COP(=O)(O)O)c(C=O)c1O [PLP, pyridoxal 5′‐phosphate]
